Measured values as given in patent US20230136600A1, “Method and device for screening antigen epitope polypeptide” (priority 2020, published 2023).

System: Balb/c mice
Experiment: Polypeptide chip-based vaccine immunogenicity scoring system
Assay type: in vivo
Set-up: key to A2: whether the 95 percentile of the last sampling is increased compared with the end point: Y = rise; N = no rise
Settings: for A1: difference between a highest median and a D 0 median (95 percentile) / A2: whether the 95 percentile of the last sampling is increased compared with the end point: Mix1-10; for A: 95 percentile grouping number score / B: Mouse performance score: total score = 5; for C1: #A timing-sequence response peptide fragment set / C2: #B vaccine specificity peptide fragment set / C3: Intersection of A and B / C4: Percentage of the intersection in set B / C: Timing-sequence response and specificity score: value of the whole mix
Experimental: Data distribution and characteristics thereof are analyzed based on a) and b), a polypeptide chip-based vaccine immunogenicity scoring system (referring to Table 7) is designed.
10 combinations are evaluated by the polypeptide chip-based vaccine immunogenicity scoring system. An evaluation method is consistent with that in Embodiment II. Evaluation results are show in the table below.
This embodiment is consistent with Embodiment II. Each combination is evaluated by the polypeptide chip-based vaccine immunogenicity scoring system. Evaluation results are show in the table below.

[1] = Embodiment III, polypeptide-KLH
[2] = Embodiment III, polypeptide-KLH, A*3 + B*2 + C*1
[3] = adjuvant AddaVax, 7 peptides co-immunized in mice
[4] = adjuvant Adju-Phos, 7 peptides co-immunized in mice
[5] = adjuvant Alhydrogel, 7 peptides co-immunized in mice
[6] = adjuvant Imjet Alumn, 7 peptides co-immunized in mice
[7] = adjuvant MA103A, 7 peptides co-immunized in mice
[8] = adjuvant MA103B, 7 peptides co-immunized in mice

## HGKEDLKF (SARS-CoV-2) [SEQ ID NO:23]
[1]
  B1: D 0-D 14 95 percentile rise in the number of mice: 3
  B2: D 0-D 21 95 percentile rise in the number of mice: 3
  B3: D 14-D 21 95 percentile rise in the number of mice: 0
  B4: D 21-D 28 95 percentile rise in the number of mice: 1
  A1: difference between a highest median and a D 0 median (95 percentile): 0.20
  A2: whether the 95 percentile of the last sampling is increased compared with the end point: N
  A: 95 percentile grouping number score: 5
  B: Mouse performance score: 1.7
  C1: #A timing-sequence response peptide fragment set: 1494
  C2: #B vaccine specificity peptide fragment set: 190
  C3: Intersection of A and B: 2
  C4: Percentage of the intersection in set B: 1.053
  C: Timing-sequence response and specificity score: 1
[2]
  Total single peptide: 19.4

## NLDSKVGGNYNY [SEQ ID NO:15]
[1]
  B1: D 0-D 14 95 percentile rise in the number of mice: 3
  B2: D 0-D 21 95 percentile rise in the number of mice: 3
  B3: D 14-D 21 95 percentile rise in the number of mice: 1
  B4: D 21-D 28 95 percentile rise in the number of mice: 0
  A1: difference between a highest median and a D 0 median (95 percentile): 0.15
  A2: whether the 95 percentile of the last sampling is increased compared with the end point: N
  A: 95 percentile grouping number score: 4.5
  B: Mouse performance score: 1.7
  C1: #A timing-sequence response peptide fragment set: 257
  C2: #B vaccine specificity peptide fragment set: 682
  C3: Intersection of A and B: 3
  C4: Percentage of the intersection in set B: 0.440
  C: Timing-sequence response and specificity score: 0.5
[2]
  Total single peptide: 17.4

## GTITVEELKK (SARS-CoV-2) [SEQ ID NO:39]
[1]
  B1: D 0-D 14 95 percentile rise in the number of mice: 1
  B2: D 0-D 21 95 percentile rise in the number of mice: 2
  B3: D 14-D 21 95 percentile rise in the number of mice: 2
  B4: D 21-D 28 95 percentile rise in the number of mice: 0
  A1: difference between a highest median and a D 0 median (95 percentile): 0.03
  A2: whether the 95 percentile of the last sampling is increased compared with the end point: N
  A: 95 percentile grouping number score: 1
  B: Mouse performance score: 1.1
  C1: #A timing-sequence response peptide fragment set: 145
  C2: #B vaccine specificity peptide fragment set: 529
  C3: Intersection of A and B: 1
  C4: Percentage of the intersection in set B: 0.189
  C: Timing-sequence response and specificity score: 0.5
[2]
  Total single peptide: 5.7

## RLFRKSNLK (SARS-CoV-2) [SEQ ID NO:35]
[1]
  B1: D 0-D 14 95 percentile rise in the number of mice: 3
  B2: D 0-D 21 95 percentile rise in the number of mice: 3
  B3: D 14-D 21 95 percentile rise in the number of mice: 2
  B4: D 21-D 28 95 percentile rise in the number of mice: 0
  A1: difference between a highest median and a D 0 median (95 percentile): 0.10
  A2: whether the 95 percentile of the last sampling is increased compared with the end point: N
  A: 95 percentile grouping number score: 4
  B: Mouse performance score: 1.9
  C1: #A timing-sequence response peptide fragment set: 352
  C2: #B vaccine specificity peptide fragment set: 541
  C3: Intersection of A and B: 1
  C4: Percentage of the intersection in set B: 0.185
  C: Timing-sequence response and specificity score: 0.5
[2]
  Total single peptide: 16.3

## LQDLKWARFPKS [SEQ ID NO:29]
[1]
  B1: D 0-D 14 95 percentile rise in the number of mice: 3
  B2: D 0-D 21 95 percentile rise in the number of mice: 3
  B3: D 14-D 21 95 percentile rise in the number of mice: 2
  B4: D 21-D 28 95 percentile rise in the number of mice: 0
  A1: difference between a highest median and a D 0 median (95 percentile): 0.10
  A2: whether the 95 percentile of the last sampling is increased compared with the end point: N
  A: 95 percentile grouping number score: 4
  B: Mouse performance score: 1.9
  C1: #A timing-sequence response peptide fragment set: 257
  C2: #B vaccine specificity peptide fragment set: 682
  C3: Intersection of A and B: 3
  C4: Percentage of the intersection in set B: 0.440
  C: Timing-sequence response and specificity score: 0.5
[2]
  Total single peptide: 16.3
[3]
  1) 95 percentile grouping number A: 4
  1) 95 percentile grouping number A1: 0.055
  2) Mouse performance B: 3.5
  2) Mouse performance B1: 3
  2) Mouse performance B2: 5
  2) Mouse performance B3: 4
  3) Timing-sequence response and specificity C: 0
  3) Timing-sequence response and specificity C1: 237
  3) Timing-sequence response and specificity C2: 1244
  3) Timing-sequence response and specificity C3: 0
  3) Timing-sequence response and specificity C4: 0.000
  Total single peptide: 19
[4]
  1) 95 percentile grouping number A: 3.5
  1) 95 percentile grouping number A1: 0.055
  2) Mouse performance B: 1.9
  2) Mouse performance B1: 3
  2) Mouse performance B2: 3
  2) Mouse performance B3: 1
  3) Timing-sequence response and specificity C: 0
  3) Timing-sequence response and specificity C1: 203
  3) Timing-sequence response and specificity C2: 1244
  3) Timing-sequence response and specificity C3: 0
  3) Timing-sequence response and specificity C4: 0.000
  Total single peptide: 14.3
[5]
  1) 95 percentile grouping number A: 3
  1) 95 percentile grouping number A1: 0.04
  2) Mouse performance B: 1.9
  2) Mouse performance B1: 5
  2) Mouse performance B2: 2
  2) Mouse performance B3: 0
  3) Timing-sequence response and specificity C: 1
  3) Timing-sequence response and specificity C1: 123
  3) Timing-sequence response and specificity C2: 1244
  3) Timing-sequence response and specificity C3: 2
  3) Timing-sequence response and specificity C4: 0.161
  Total single peptide: 13.3
[6]
  1) 95 percentile grouping number A: 5
  1) 95 percentile grouping number A1: 0.08
  2) Mouse performance B: 2.5
  2) Mouse performance B1: 5
  2) Mouse performance B2: 3
  2) Mouse performance B3: 1
  3) Timing-sequence response and specificity C: 1
  3) Timing-sequence response and specificity C1: 100
  3) Timing-sequence response and specificity C2: 1244
  3) Timing-sequence response and specificity C3: 3
  3) Timing-sequence response and specificity C4: 0.241
  Total single peptide: 20.5
[7]
  1) 95 percentile grouping number A: 5
  1) 95 percentile grouping number A1: 0.08
  2) Mouse performance B: 2.9
  2) Mouse performance B1: 5
  2) Mouse performance B2: 5
  2) Mouse performance B3: 1
  3) Timing-sequence response and specificity C: 1
  3) Timing-sequence response and specificity C1: 260
  3) Timing-sequence response and specificity C2: 1244
  3) Timing-sequence response and specificity C3: 3
  3) Timing-sequence response and specificity C4: 0.241
  Total single peptide: 21.3
[8]
  1) 95 percentile grouping number A: 4.5
  1) 95 percentile grouping number A1: 0.065
  2) Mouse performance B: 3.7
  2) Mouse performance B1: 5
  2) Mouse performance B2: 5
  2) Mouse performance B3: 3
  3) Timing-sequence response and specificity C: 0
  3) Timing-sequence response and specificity C1: 153
  3) Timing-sequence response and specificity C2: 1244
  3) Timing-sequence response and specificity C3: 0
  3) Timing-sequence response and specificity C4: 0.000
  Total single peptide: 20.9

## QELGKYEQY (SARS-CoV-2) [SEQ ID NO:38]
[1]
  B1: D 0-D 14 95 percentile rise in the number of mice: 3
  B2: D 0-D 21 95 percentile rise in the number of mice: 3
  B3: D 14-D 21 95 percentile rise in the number of mice: 2
  B4: D 21-D 28 95 percentile rise in the number of mice: 1
  A1: difference between a highest median and a D 0 median (95 percentile): 0.10
  A2: whether the 95 percentile of the last sampling is increased compared with the end point: Y
  A: 95 percentile grouping number score: 4.5
  B: Mouse performance score: 2.1
  C1: #A timing-sequence response peptide fragment set: 352
  C2: #B vaccine specificity peptide fragment set: 541
  C3: Intersection of A and B: 1
  C4: Percentage of the intersection in set B: 0.185
  C: Timing-sequence response and specificity score: 0.5
[2]
  Total single peptide: 18.2

## DSFKEELDKY (SARS-CoV-2) [SEQ ID NO:33]
[1]
  B1: D 0-D 14 95 percentile rise in the number of mice: 3
  B2: D 0-D 21 95 percentile rise in the number of mice: 3
  B3: D 14-D 21 95 percentile rise in the number of mice: 1
  B4: D 21-D 28 95 percentile rise in the number of mice: 1
  A1: difference between a highest median and a D 0 median (95 percentile): 0.13
  A2: whether the 95 percentile of the last sampling is increased compared with the end point: N
  A: 95 percentile grouping number score: 4.5
  B: Mouse performance score: 1.9
  C1: #A timing-sequence response peptide fragment set: 288
  C2: #B vaccine specificity peptide fragment set: 268
  C3: Intersection of A and B: 4
  C4: Percentage of the intersection in set B: 1.493
  C: Timing-sequence response and specificity score: 1
[2]
  Total single peptide: 18.3

## KEIDRLNEV [SEQ ID NO:12]
[1]
  B1: D 0-D 14 95 percentile rise in the number of mice: 3
  B2: D 0-D 21 95 percentile rise in the number of mice: 3
  B3: D 14-D 21 95 percentile rise in the number of mice: 1
  B4: D 21-D 28 95 percentile rise in the number of mice: 0
  A1: difference between a highest median and a D 0 median (95 percentile): 0.10
  A2: whether the 95 percentile of the last sampling is increased compared with the end point: N
  A: 95 percentile grouping number score: 4
  B: Mouse performance score: 1.7
  C1: #A timing-sequence response peptide fragment set: 257
  C2: #B vaccine specificity peptide fragment set: 682
  C3: Intersection of A and B: 3
  C4: Percentage of the intersection in set B: 0.440
  C: Timing-sequence response and specificity score: 0.5
[2]
  Total single peptide: 15.9

## KLDNYYKKDNSY (SARS-CoV-2) [SEQ ID NO:32]
[1]
  B1: D 0-D 14 95 percentile rise in the number of mice: 3
  B2: D 0-D 21 95 percentile rise in the number of mice: 3
  B3: D 14-D 21 95 percentile rise in the number of mice: 1
  B4: D 21-D 28 95 percentile rise in the number of mice: 2
  A1: difference between a highest median and a D 0 median (95 percentile): 0.12
  A2: whether the 95 percentile of the last sampling is increased compared with the end point: Y
  A: 95 percentile grouping number score: 5
  B: Mouse performance score: 2.1
  C1: #A timing-sequence response peptide fragment set: 1494
  C2: #B vaccine specificity peptide fragment set: 190
  C3: Intersection of A and B: 2
  C4: Percentage of the intersection in set B: 1.053
  C: Timing-sequence response and specificity score: 1
[2]
  Total single peptide: 20.2
